Experimental data published in publication PMC9867208, “Lipophilicity and ADMET Analysis of Quinoline-1,4-quinone Hybrids” (Pharmaceutics, 2022).
Where two headings read alike, the source gives them in different places.

Experiments:
[1] = Experimental lipophilicity by RP-TLC; conditions: for φ0 (hydrophobicity index): φ0 = −RM0/b
Text: The RP-TLC method was used to determine the experimental lipophilicity according to the literature. Modified silica gel was used as the stationary phase and a mixture of tris(hydroxymethyl)aminomethane (TRIS) (0.2 M, pH = 7.4) with acetone as the mobile phase. […] For this reason, an aprotic solvent such as acetone was chosen as the mobile phase.
Spots were visualized in iodine vapor.
The retardation parameter (Rf) was converted to the RM parameter according to Equation (1):(1) RM=log(1/Rf−1)
The RM parameter was calculated for every concentration of acetone and extrapolated to zero concentration of organic solvent in the mobile phase. The chromatographic parameter of lipophilicity (RM0) was calculated using Equation (2):(2) RM=RM0+bC where C is the concentration of acetone in the mobile phase, while b is the slope of the regression plot.
In the next step, the relative lipophilicity parameter RM0 was converted to the absolute lipophilicity parameter logPTLC using the calibration curve.
Lipophilicity correlates with hydrophobicity, which determines the solubility of the compound in water. The hydrophobicity is described by the hydrophobicity index (φ0), which can be calculated according to Equation (4). (4) φ0=−RM0/b

[2] = system: NAD(P)H quinone dehydrogenase 1 (NQO1); conditions: cited from earlier work
[3] = RP-TLC, acetone/TRIS 0.2 M pH 7.4, extrapolated to zero acetone
[4] = from RM0 by calibration curve Equation (3)

| Structure (SMILES) | chromatographic logP [1] | RM0 (chromatographic parameter of lipophilicity) [1, 3] | φ0 (hydrophobicity index) [1] | logNQO1 (enzymatic conversion rate of NQO1) [2] | logPTLC (experimental lipophilicity) [1, 4] | logPTLC (experimental lipophilicity) [1] | RM0 (chromatographic parameter of lipophilicity) ([1]; pH 7.4) |
| --- | --- | --- | --- | --- | --- | --- | --- |
| O=Cc1ccc2cccc(OC3=C(Cl)C(=O)c4cccnc4C3=O)c2n1 [Compound 3] | 1.75 | 1.60 ± 0.03 | 68.09 | 3.041 | – | – | – |
| CC(=O)c1ccc(Br)cc1 [C, 4-bromoacetophenone, reference compound] | – | 2.33 | – | – | 2.58 | – | – |
| Cc1ccc2cccc(OC3=C(Cl)C(=O)c4cccnc4C3=O)c2n1 [Compound 2] | – | – | 68.99 | 3.112 | – | 1.84 | 1.68 ± 0.03 |
| O=C1C(Cl)=C(Oc2cccc3ccc(N4CCOCC4)nc23)C(=O)c2ccccc21 [Compound 24] | 4.5 | 4.01 ± 0.01 | 75.95 | 1.940 | – | – | – |
| O=C1C(Cl)=C(Oc2cccc3ccc(N4CCCC4)nc23)C(=O)c2ncccc21 [Compound 5] | 2.6 | 2.35 ± 0.02 | 74.53 | 3.034 | – | – | – |
| O=C1C(Cl)=C(Oc2cccc3ccc(N4CCOCC4)nc23)C(=O)c2ncccc21 [Compound 6] | 2.72 | 2.45 ± 0.04 | 66.81 | 2.053 | – | – | – |
| O=C1C(Cl)=C(Oc2cccc3ccc(N4CCOCC4)nc23)C(=O)c2cnccc21 [Compound 12] | 3.68 | 3.30 ± 0.02 | 72.22 | 2.155 | – | – | – |
| O=C1C(Cl)=C(Oc2cccc3ccc(Cl)nc23)C(=O)c2ncccc21 [Compound 4] | 2.55 | 2.55 ± 0.02 | 65.88 | 2.903 | – | – | – |
| Cc1ccc2c(n1)C(=O)C(Oc1cccc3ccc(N4CCCC4)nc13)=C(Cl)C2=O [Compound 17] | 3.79 | 3.39 ± 0.03 | 75.30 | 2.778 | – | – | – |
| c1ccc2cc3ccccc3cc2c1 [E, anthracene, reference compound] | 4.45 | 3.97 | – | – | – | – | – |
| Cc1ccc2c(n1)C(=O)C(Oc1cccc3ccc(C)nc13)=C(Cl)C2=O [Compound 14] | – | – | 69.97 | 3.157 | – | 2.00 | 1.82 ± 0.02 |
| O=C1C(Cl)=C(Oc2cccc3ccc(N4CCCC4)nc23)C(=O)c2ccccc21 [Compound 23] | 4.16 | 3.72 ± 0.02 | 81.13 | 2.549 | – | – | – |
| O=Cc1ccc2cccc(OC3=C(Cl)C(=O)c4ccccc4C3=O)c2n1 [Compound 21] | 4.61 | 4.11 ± 0.01 | 80.01 | 2.740 | – | – | – |
| Cc1ccc2c(n1)C(=O)C(Oc1cccc3ccc(N4CCOCC4)nc13)=C(Cl)C2=O [Compound 18] | 2.98 | 2.69 ± 0.03 | 68.95 | 2.322 | – | – | – |
| O=C1C(Cl)=C(Oc2cccc3cccnc23)C(=O)c2cnccc21 [Compound 7] | – | – | 72.57 | 3.083 | – | 2.40 | 2.17 ± 0.01 |
| Cc1ccc2cccc(OC3=C(Cl)C(=O)c4ccccc4C3=O)c2n1 [Compound 20] | – | 3.34 ± 0.01 | 79.55 | 3.100 | 3.73 | – | – |
| O=C1C(Cl)=C(Oc2cccc3cccnc23)C(=O)c2ccccc21 [Compound 19] | – | 2.90 ± 0.02 | 78.79 | 3.108 | 3.23 | – | – |
| Cc1ccc2cccc(OC3=C(Cl)C(=O)c4ccncc4C3=O)c2n1 [Compound 8] | – | – | 74.47 | 3.058 | – | 2.85 | 2.56 ± 0.02 |
| Cc1ccc2c(n1)C(=O)C(Oc1cccc3cccnc13)=C(Cl)C2=O [Compound 13] | – | – | 66.07 | 3.178 | – | 2.31 | 2.09 ± 0.02 |
| Cc1ccc2c(n1)C(=O)C(Oc1cccc3ccc(Cl)nc13)=C(Cl)C2=O [Compound 16] | 3.3 | 2.96 ± 0.01 | 69.66 | 2.949 | – | – | – |
| Cc1ccc2c(n1)C(=O)C(Oc1cccc3ccc(C=O)nc13)=C(Cl)C2=O [Compound 15] | 2.26 | 2.05 ± 0.01 | 71.78 | 2.672 | – | – | – |
| O=C1C(Cl)=C(Oc2cccc3ccc(N4CCCC4)nc23)C(=O)c2cnccc21 [Compound 11] | 3.15 | 2.83 ± 0.03 | 74.76 | 2.330 | – | – | – |
| O=C1C(Cl)=C(Oc2cccc3ccc(Cl)nc23)C(=O)c2cnccc21 [Compound 10] | 3.63 | 3.25 ± 0.01 | 78.21 | 2.801 | – | – | – |
| O=C1C(Cl)=C(Oc2cccc3cccnc23)C(=O)c2ncccc21 [Compound 1] | – | – | 72.87 | 3.146 | – | 1.65 | 1.51 ± 0.02 |
| O=Cc1ccc2cccc(OC3=C(Cl)C(=O)c4ccncc4C3=O)c2n1 [Compound 9] | 2.72 | 2.45 ± 0.02 | 73.71 | 2.502 | – | – | – |
| CC(=O)Nc1ccccc1 [B, acetanilide, reference compound] | – | 1.11 | – | – | 1.19 | – | – |
| Clc1ccc(C(c2ccc(Cl)cc2)C(Cl)(Cl)Cl)cc1 [F, dichlorodiphenyltrichloroethane, reference compound] | – | 5.60 | – | – | 6.31 | – | – |
| O=C1C(Cl)=C(Oc2cccc3ccc(Cl)nc23)C(=O)c2ccccc21 [Compound 22] | 5.06 | 4.51 ± 0.02 | 76.85 | 3.000 | – | – | – |
| NC(=O)c1ccccc1 [A, benzamide, reference compound] | 0.54 | 0.54 | – | – | – | – | – |
